In patent US8933224B2, “Triazine derivatives” (Pfizer Inc., priority 2013, dated 2015):

molecular target: rat PDE10 enzyme (Rattus norvegicus (Rat), UniProt Q9QYJ6); experiment: PDE10 scintillation proximity assay (SPA), inhibition of rat PDE10 enzyme activity; type: biochemical; settings: geometric mean of 2-4 determinations unless otherwise indicated (b: ≧5 determinations; c: single determination)
Procedure: PDE10 activity was measured using a scintillation assay (SPA-based method) similar to that previously described by Seeger, T. F. et al., Brain Research 985 (2003) 113-126. The compounds' relative activity as PDE10 inhibitors was investigated by assaying a fixed amount of enzyme in the presence of the test compound and low substrate concentration (cAMP) such that an IC50 could be determined. […] The assay is performed in a 384-well format with 50 μL assay buffer (50 mM TRIS pH 7.5; 1.3 mM MgCl2; 0.01% Brij) containing enough PDE10 to convert ˜20% of 20 nM ^3H-cAMP, and a range of inhibitors. Reactions are incubated for 30 minutes at 25° C. The addition of 20 μL of 8 mg/ml yttrium silicate SPA beads (PerkinElmer) stops the reaction. The plates are sealed (TopSeal, PerkinElmer) and the beads are allowed to settle for 8 hrs, after which they are read on the Trilux Microbeta overnight. ^1Rat enzyme preparation:^2Human enzyme preparation:
The recombinant Bacmid was isolated and used to transfect sf9 insect cells to generate a viral stock. To generate cell paste for purification, sf21 cells were infected with the virus stock and cells were harvested 72 hours after infection as described in Seeger, T. F. et al., Brain Research 985 (2003) 113-126. Insect cell paste was lysed and after centrifugation, the supernatant was chromatographed on Ni-NTA agarose (Qiagen) followed by Mono Q (GE Healthcare Life Sciences) as described in Seeger, T. F. et al., Brain Research 985 (2003) 113-126.

Chain of rat PDE10 enzyme (Q9QYJ6 24-794): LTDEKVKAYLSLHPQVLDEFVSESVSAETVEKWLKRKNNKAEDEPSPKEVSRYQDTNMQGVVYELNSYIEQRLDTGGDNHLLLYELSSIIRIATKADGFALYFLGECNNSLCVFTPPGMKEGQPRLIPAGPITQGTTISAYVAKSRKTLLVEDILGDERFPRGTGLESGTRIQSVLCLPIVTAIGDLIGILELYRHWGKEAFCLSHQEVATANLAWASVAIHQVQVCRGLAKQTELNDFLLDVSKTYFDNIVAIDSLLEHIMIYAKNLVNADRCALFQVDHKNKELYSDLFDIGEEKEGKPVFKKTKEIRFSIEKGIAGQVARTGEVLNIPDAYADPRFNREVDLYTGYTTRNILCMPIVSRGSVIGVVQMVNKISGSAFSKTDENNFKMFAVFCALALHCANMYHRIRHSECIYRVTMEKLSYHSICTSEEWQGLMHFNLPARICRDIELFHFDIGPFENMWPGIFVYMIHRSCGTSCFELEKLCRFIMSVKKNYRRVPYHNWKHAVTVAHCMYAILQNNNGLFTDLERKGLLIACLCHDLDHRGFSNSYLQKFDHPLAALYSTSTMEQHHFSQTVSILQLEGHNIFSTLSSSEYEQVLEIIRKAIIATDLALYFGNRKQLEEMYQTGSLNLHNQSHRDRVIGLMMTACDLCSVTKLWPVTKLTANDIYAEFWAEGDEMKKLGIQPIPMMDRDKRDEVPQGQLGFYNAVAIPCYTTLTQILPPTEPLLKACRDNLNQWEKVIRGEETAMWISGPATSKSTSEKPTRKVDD

| IC50 | Structure (SMILES) |
| --- | --- |
| 8.44 nM | Cc1nc(-c2ccc(F)cc2Cl)c2c(N3CCc4nc(C5CC5)ncc4C3)ncnn12 [Example 7, 6-[5-(2-Chloro-4-fluorophenyl)-7-methylimidazo[5,1-f][1,2,4]triazin-4-yl]-2-cyclopropyl-5,6,7,8-tetrahydropyrido[4,3-d]pyrimidine] |
| 0.56 nM | Cc1ccccc1-c1nc(C)n2ncnc(N3CCc4c(c(C(C)C)nn4C)C3)c12 [Example 10, 4-(3-Isopropyl-1-methyl-1,4,6,7-tetrahydro-5H-pyrazolo[4,3-c]pyridin-5-yl)-7-methyl-5-(2-methylphenyl)imidazo[5,1-f][1,2,4]triazine] |
| 1.62 nM | COc1cc2c(cc1OC)CN(c1ncnn3c(C)nc([C@H]4CCOC4)c13)CC2 [Example 14, 6,7-dimethoxy-2-{7-methyl-5-[(3R)-tetrahydrofuran-3-yl]imidazo[5,1-f][1,2,4]triazin-4-yl}-1,2,3,4-tetrahydroisoquinoline] |
| 0.716 nM | COc1cc2c(cc1OC)CN(c1ncnn3c(C)nc([C@@H]4CCOC4)c13)CC2 [Example 15, 6,7-dimethoxy-2-{7-methyl-5-[(3S)-tetrahydrofuran-3-yl]imidazo[5,1-f][1,2,4]triazin-4-yl}-1,2,3,4-tetrahydroisoquinoline] |
| 6.55 nM | Cc1nc([C@@H]2CCOC2)c2c(N3CCc4nc(C5CC5)ncc4C3)ncnn12 [Example 16, 2-cyclopropyl-6-{7-methyl-5-[(3S)-tetrahydrofuran-3-yl]imidazo{5,1-f][1,2,4]triazin-4-yl}-5,6,7,8-tetrahydropyrido[4,3-d]pyrimidine] |
| < 0.24 nM | COc1ccc2c(c1OC)CN(c1ncnn3c(C)nc([C@@H]4CCOC4)c13)CC2 [Example 17, 7,8-dimethoxy-2-{7-methyl-5-[(3S)-tetrahydrofuran-3-yl]imidazo[5,1-f][1,2,4]triazin-4-yl}-1,2,3,4-tetrahydroisoquinoline] |
| 5.2 nM | Cc1nc(C2CCCO2)c2c(N3CCc4nc(C5CC5)ncc4C3)ncnn12 (stereo not drawn) [Example 22, 2-cyclopropyl-6-[7-methyl-5-(tetrahydrofuran-2-yl)imidazo[5,1-f][1,2,4]triazin-4-yl]-5,6,7,8-tetrahydropyrido[4,3-d]pyrimidine] |
| < 3.29 nM | Cc1ccccc1-c1nc(C)n2ncnc(N3CCc4nc(C5CC5)ncc4C3)c12 [Example 24, 2-cyclopropyl-6-[7-methyl-5-(2-methylphenyl)imidazo[5,1-f][1,2,4]triazin-4-yl]-5,6,7,8-tetrahydropyrido[4,3-d]pyrimidine] |
| < 2.26 nM | Cc1nc([C@H]2CCOC2)c2c(N3CCc4nn(C5CC5)cc4C3)ncnn12 [Example 26, 4-(2-cyclopropyl-2,4,6,7-tetrahydro-5H-pyrazolo[4,3-c]pyridin-5-yl)-7-methyl-5-[(3R)-tetrahydrofuran-3-yl]imidazo[5,1-f][1,2,4]triazine] |
| 3.52 nM | Cc1nc([C@@H]2CCOC2)c2c(N3CCc4noc(C(C)C)c4C3)ncnn12 [Example 30, 7-methyl-4[3-(propan-2-yl)-6,7-dihydro[1,2]oxazolo[4,3-c]pyridin-5(4H)-yl]-5-[(3S)-tetrahydrofuran-3-yl]imidazo[5,1-f][1,2,4]triazine] |
| 3.73 nM | CCc1onc2c1CN(c1ncnn3c(C)nc([C@@H]4CCOC4)c13)CC2 [Example 31] |
| 3.74 nM | CCc1noc2c1CN(c1ncnn3c(C)nc([C@@H]4CCOC4)c13)CC2 [Example 32] |
| 23.3 nM | Cc1onc2c1CN(c1ncnn3c(C)nc([C@@H]4CCOC4)c13)CC2 [Example 33, 7-methyl-4-(3-methyl-6,7-dihydro[1,2]oxazolo[4,3-c]pyridin-5(4H)-yl)-5-[(3S)-tetrahydrofuran-3-yl]imidazo[5,1-f][1,2,4]triazine] |
| 16.5 nM | Cc1noc2c1CN(c1ncnn3c(C)nc([C@@H]4CCOC4)c13)CC2 [Example 34, 7-methyl-4-(3-methyl-6,7-dihydro[1,2]oxazolo[4,5-c]pyridin-5(4H)-yl)-5-[(3S)-tetrahydrofuran-3-yl]imidazo[5,1-f][1,2,4]triazine] |
| 0.44 nM | Cc1nc2c(c(OC(F)F)n1)CN(c1ncnn3c(C)nc([C@@H]4CCOC4)c13)CC2 [Example 36, 4-(difluoromethoxy)-2-methyl-6-{7-methyl-5-[(3S)-tetrahydrofuran-3-yl]imidazo[5,1-f][1,2,4]triazin-4-yl}-5,6,7,8-tetrahydropyrido[4,3-d]pyrimidine] |
| 0.193 nM | COc1nc(C2CC2)nc2c1CN(c1ncnn3c(C)nc([C@@H]4CCOC4)c13)CC2 [Example 39, 2-cyclopropyl-4-methoxy-6-{7-methyl-5-[(3S)-tetrahydrofuran-3-yl]imidazo[5,1-f][1,2,4]triazin-4-yl}-5,6,7,8-tetrahydropyrido[4,3-d]pyrimidine] |
| < 0.175 nM | Cc1nc(C2CC2)nc2c1CN(c1ncnn3c(C)nc([C@@H]4CCOC4)c13)CC2 [Example 41, 2-cyclopropyl-4-methyl-6-{7-methyl-5-[(3S)-tetrahydrofuran-3-yl]imidazo[5,1-f][1,2,4]triazin-4-yl}-5,6,7,8-tetrahydropyrido[4,3-d]pyrimidine] |
| < 3.23 nM | COc1cc2c(cc1OC)CN(c1ncnn3c(C)nc(-c4ccccc4F)c13)CC2 [Example 42, 2-[5-(2-fluorophenyl)-7-methylimidazo[5,1-f][1,2,4]triazin-4-yl]-6,7-dimethoxy-1,2,3,4-tetrahydroisoquinoline] |
| 0.465 nM | Cc1nc(-c2ccccc2F)c2c(N3CCc4c(c(C(C)C)nn4C)C3)ncnn12 [Example 43, 5-(2-fluorophenyl)-4-(3-isopropyl-1-methyl-1,4,6,7-tetrahydro-5H-pyrazolo[4,3-c]pyridin-5-yl)-7-methylimidazo[5,1-f][1,2,4]triazine] |
| 3.84 nM | Cc1nc(C2CCCO2)c2c(N3CCc4c(c(C(C)C)nn4C)C3)ncnn12 (stereo not drawn) [Example 45, 4-(3-isopropyl-1-methyl-1,4,6,7-tetrahydro-5H-pyrazolo[4,3-c]pyridin-5-yl)-7-methyl-5-(tetrahydrofuran-2-yl)imidazo[5,1-f][1,2,4]triazine] |
| 1.98 nM | Cc1nc(-c2ccccc2F)c2c(N3CCc4noc(C5CC5)c4C3)ncnn12 [Example 46, 4-(3-cyclopropyl-6,7-dihydroisoxazolo[4,3-c]pyridin-5(4H)-yl)-5-(2-fluorophenyl)-7-methylimidazo[5,1-f][1,2,4]triazine] |
| < 1 nM | CCc1nn(C)c2c1CN(c1ncnn3c(C)nc(CC(C)C)c13)CC2 [Example 48, 4-(3-ethyl-1-methyl-1,4,6,7-tetrahydro-5H-pyrazolo[4,3-c]pyridin-5-yl)-5-isobutyl-7-methylimidazo[5,1-f][1,2,4]triazine] |
| 13.5 nM | Cc1nc([C@H]2CCOC2)c2c(N3CCc4cc(Cl)c(Cl)cc4C3)ncnn12 [Example 51, 6,7-dichloro-2-{7-methyl-5-[(3R)-tetrahydrofuran-3-yl]imidazo[5,1-f][1,2,4]triazin-4-yl}-1,2,3,4-tetrahydroisoquinoline] |
| 0.101 nM | Cc1nc([C@@H]2CCOC2)c2c(N3CCc4nc(C5CC5)nc(O)c4C3)ncnn12 [Example 52, 2-cyclopropyl-6-{7-methyl-5-[(3S)-tetrahydrofuran-3-yl]imidazo[5,1-f][1,2,4]triazin-4-yl}-5,6,7,8-tetrahydropyrido[4,3-d]pyrimidin-4-ol] |
| 1.79 nM | Cc1nc(-c2ccccc2F)c2c(N3CCc4nc(C5CC5)oc4C3)ncnn12 [Example 53, 4-(2-cyclopropyl-6,7-dihydro[1,3]oxazolo[5,4-c]pyridin-5(4H)-yl)-5-(2-fluorophenyl)-7-methylimidazo[5,1-f][1,2,4]triazine] |
| 4.52 nM | Cc1nc(CC(C)C)c2c(N3CCc4nc(C5CC5)oc4C3)ncnn12 [Example 54, 4-(2-cyclopropyl-6,7-dihydro[1,3]oxazolo[5,4-c]pyridin-5(4H)-yl)-5-isobutyl-7-methylimidazo[5,1-f][1,2,4]triazine] |
| 2.19 nM | Cc1nc(CC(C)C)c2c(N3CCc4nc(C5CC5)ncc4C3)ncnn12 [Example 55, 2-cyclopropyl-6-(5-isobutyl-7-methylimidazo[5,1-f][1,2,4]triazin-4-yl)-5,6,7,8-tetrahydropyrido[4,3-d]pyrimidine] |
| 5.34 nM | Cc1nc([C@H]2CCOC2)c2c(N3CCc4nc(C5CC5)ncc4C3)ncnn12 [Example 56, 2-cyclopropyl-6-{7-methyl-5-[(3R)-tetrahydrofuran-3-yl]imidazo[5,1-f][1,2,4]triazin-4-yl}-5,6,7,8-tetrahydropyrido[4,3-d]pyrimidine] |
| 3.1 nM | COc1cc2c(cc1OC)CN(c1ncnn3c(C)nc(C4CCOCC4)c13)CC2 [Example 59, 6,7-dimethoxy-2-[7-methyl-5-(tetrahydro-2H-pyran-4-yl)imidazo[5,1-f][1,2,4]triazin-4-yl]-1,2,3,4-tetrahydroisoquinoline] |
| 1.35 nM | COc1ccc2c(c1OC)CN(c1ncnn3c(C)nc(C4CCOCC4)c13)CC2 [Example 60, 7,8-dimethoxy-2-[7-methyl-5-(tetrahydro-2H-pyran-4-yl)imidazo[5,1-f][1,2,4]triazin-4-yl]-1,2,3,4-tetrahydroisoquinoline] |
